Source: paper PMC4839570, “Novel Anthra[1,2-c][1,2,5]Thiadiazole-6,11-Diones as Promising Anticancer Lead Compounds: Biological Evaluation, Characterization & Molecular Targets Determination” (PLoS ONE, 2016)
Like-named read-outs stand apart in the source and are kept apart here.

Assays:
[1] = test system: COLO 205; test: NCI-60 cytotoxicity screen; assay type: cell-based
[2] = test system: SF-268; test: NCI-60 cytotoxicity screen; assay type: cell-based
[3] = test system: HL-60(TB); test: NCI-60 cytotoxicity screen; assay type: cell-based
[4] = test system: BT-549; test: NCI-60 cytotoxicity screen; assay type: cell-based
[5] = test system: UACC-257; test: NCI-60 cytotoxicity screen; assay type: cell-based
[6] = test system: NCI-H522; test: JFCR-39 cytotoxicity screen; assay type: cell-based
[7] = test system: OVCAR-8; test: NCI-60 cytotoxicity screen; assay type: cell-based
[8] = test system: A498; test: NCI-60 cytotoxicity screen; assay type: cell-based
[9] = test system: JFCR 39 human cancer cell lines; test: JFCR-39 screen, means, ranges and selectivity over panels; assay type: cell-based; conditions: for GI50: Homo sapiens
Description: Both NSC745885 and NSC757963 satisfied the pre-determined threshold inhibition criteria of the NCI-60 One-Dose Screening, so they were tested against the panels of 60 cancer cell lines of NCI (NCI-60) and 39 cancer cell lines of JFCR (JFCR-39), each cell line was tested at five small doses of our compounds. Results are expressed as the 50% growth inhibition concentration (GI50), the 50% lethal concentration (LC50) and the total growth inhibition (TGI), compared to the values of untreated control cells.
To characterize the selectivity of NSC745885 and NSC757963 further among the different types of cancer, we determined their selectivity ratios towards each cell line subpanel used in the cytotoxicity experiments. […] The promising activity of this compound is evident from the small mean GI50 values. […] The strongest activity was towards the leukemia subpanel and the least one was towards the colon cancer subpanel. […] The strongest activity was towards the melanoma subpanel and the least one was towards the colon cancer subpanel.
All cell lines were published before.

[10] = test system: LOX IMVI; test: NCI-60 cytotoxicity screen; assay type: cell-based
[11] = test system: MDA-MB-231; test: JFCR-39 cytotoxicity screen; assay type: cell-based
[12] = test system: MALME-3M; test: NCI-60 cytotoxicity screen; assay type: cell-based
[13] = test system: SK-OV-3; test: JFCR-39 cytotoxicity screen; assay type: cell-based
[14] = test system: BSY-1; test: JFCR-39 cytotoxicity screen; assay type: cell-based
[15] = test system: MKN28; test: JFCR-39 cytotoxicity screen; assay type: cell-based
[16] = test system: SK-OV-3; test: NCI-60 cytotoxicity screen; assay type: cell-based
[17] = test system: ST-4; test: JFCR-39 cytotoxicity screen; assay type: cell-based
[18] = test system: SK-MEL-2; test: NCI-60 cytotoxicity screen; assay type: cell-based
[19] = test system: HT-29; test: JFCR-39 cytotoxicity screen; assay type: cell-based
[20] = test system: LOX-IMVI; test: JFCR-39 cytotoxicity screen; assay type: cell-based
[21] = test system: MDA-MB-468; test: NCI-60 cytotoxicity screen
[22] = test system: SNB-75; test: JFCR-39 cytotoxicity screen; assay type: cell-based
[23] = test system: SW-620; test: NCI-60 cytotoxicity screen; assay type: cell-based
[24] = Homo sapiens, five-dose, read-out: GI50
[25] = Homo sapiens, five-dose, read-out: LC50 (the source's name)
[26] = Homo sapiens, Fig 7, read-out: mean log10 of the GI50 values (converted)
[27] = Homo sapiens, read-out: LC50 (the source's name)

Q: What does the source list for `O=C1c2ccccc2C(=O)c2c1cc(Cl)c1nsnc21` [NSC757963]?
A: GI50 ([1]; Homo sapiens, COLO205, Fig 7, read-out: mean log10 of the GI50 values (converted)): 14.1 µM; GI50 [1, 24]: 16.9 µM; CC50 [1, 25]: 57.9 µM; TGI ([1]; five-dose): 31.2 µM; GI50 [2, 26]: 1.95 µM; GI50 [2, 24]: 2.07 µM; CC50 [2, 25]: 13.9 µM; TGI ([2]; five-dose): 4.83 µM; GI50 [3, 26]: 1.05 µM; GI50 [3, 24]: 0.42 µM; CC50 [3, 25]: > 100 µM; TGI ([3]; five-dose): 2.22 µM; GI50 [4, 26]: 15.8 µM; GI50 [4, 24]: 18.1 µM; CC50 [4, 25]: 58.9 µM; TGI ([4]; five-dose): 32.7 µM; GI50 [5, 26]: 7.76 µM; GI50 [5, 24]: 14.5 µM; CC50 [5, 25]: 53.5 µM; TGI ([5]; five-dose): 27.8 µM; TGI [6]: 3.6 µM; GI50 ([6]; Homo sapiens): 1.8 µM; CC50 [6, 27]: 7.3 µM; GI50 [7, 26]: 1.32 µM; GI50 [7, 24]: 2.39 µM; CC50 [7, 25]: > 100 µM; TGI ([7]; five-dose): 5.19 µM; GI50 [8, 26]: 85.1 µM; GI50 [8, 24]: 72.8 µM; CC50 [8, 25]: > 100 µM; TGI ([8]; five-dose): >100 µM; selectivity ratios of the JFCR subpanels (for NSC745885 except melanoma) [9]: less than 3; GI50 ([9]; JFCR Breast Cancer, read-out: Mean GI50 of subpanel): 1.72 µM; GI50 ([9]; JFCR CNS Cancer, read-out: Mean GI50 of subpanel): 2 µM; GI50 ([9]; JFCR Colon Cancer, read-out: Mean GI50 of subpanel): 5.94 µM; GI50 ([9]; JFCR Lung Cancer, read-out: Mean GI50 of subpanel): 5.86 µM; GI50 ([9]; JFCR Melanoma, read-out: Mean GI50 of subpanel): 1.9 µM; GI50 ([9]; JFCR Ovarian Cancer, read-out: Mean GI50 of subpanel): 2.08 µM; GI50 ([9]; JFCR Prostate Cancer, read-out: Mean GI50 of subpanel): 2.05 µM; GI50 ([9]; JFCR Renal Cancer, read-out: Mean GI50 of subpanel): 1.75 µM; GI50 ([9]; JFCR Stomach Cancer, read-out: Mean GI50 of subpanel): 1.97 µM; GI50 ([9]; all JFCR subpanels, read-out: mean GI50 values of the JFCR subpanels, range): 1.72 to 5.9 µM; GI50 ([9]; equivalent to MG-MID, read-out: Mean GI50 of all JFCR-39 cell line panels): 3.15 µM; GI50 ([9]; five-dose, read-out: JFCR-39 GI50 values, range over cell lines): 1 to 21 µM; Selectivity ratio ([9]; JFCR Breast Cancer): 1.83; Selectivity ratio ([9]; JFCR CNS Cancer): 1.58; Selectivity ratio ([9]; JFCR Colon Cancer): 0.53; Selectivity ratio ([9]; JFCR Lung Cancer): 0.54; Selectivity ratio ([9]; JFCR Melanoma): 1.66; Selectivity ratio ([9]; JFCR Ovarian Cancer): 1.52; Selectivity ratio ([9]; JFCR Prostate Cancer): 1.54; Selectivity ratio ([9]; JFCR Renal Cancer): 1.8; Selectivity ratio ([9]; JFCR Stomach Cancer): 1.6; GI50 ([10]; Homo sapiens, LOXIMVI, Fig 7, read-out: mean log10 of the GI50 values (converted)): 1.74 µM; GI50 [10, 24]: 1.91 µM; CC50 [10, 25]: 19.7 µM; TGI ([10]; five-dose): 5.21 µM; TGI [11]: 2.9 µM; GI50 ([11]; Homo sapiens): 1.3 µM; CC50 [11, 27]: 6.4 µM; GI50 [12, 26]: 12.6 µM; GI50 [12, 24]: 15.9 µM; CC50 [12, 25]: 59.1 µM; TGI ([12]; five-dose): 30.7 µM; TGI [13]: 14.0 µM; GI50 ([13]; Homo sapiens): 3.2 µM; CC50 [13, 27]: 38 µM; TGI [14]: 3.2 µM; GI50 ([14]; Homo sapiens): 1.7 µM; CC50 [14, 27]: 6 µM; TGI [15]: 4.4 µM; GI50 ([15]; Homo sapiens, MKN-28): 2.2 µM; CC50 ([15]; Homo sapiens, MKN-28, read-out: LC50 (the source's name)): 8.6 µM; GI50 [16, 26]: 13.2 µM; GI50 [16, 24]: 17.8 µM; CC50 [16, 25]: 58 µM; TGI ([16]; five-dose): 32.1 µM; TGI [17]: 3.9 µM; GI50 ([17]; Homo sapiens): 2 µM; CC50 [17, 27]: 7.4 µM; GI50 [18, 26]: 2.09 µM; GI50 [18, 24]: 2.21 µM; CC50 [18, 25]: 37.7 µM; TGI ([18]; five-dose): 5.77 µM; TGI [19]: 45.0 µM; GI50 ([19]; Homo sapiens): 21 µM; CC50 [19, 27]: 98 µM; TGI [20]: 4.2 µM; GI50 ([20]; Homo sapiens): 1.9 µM; CC50 [20, 27]: 9.3 µM; GI50 ([21]; Homo sapiens, MDA-MB-468): 1.38 µM; CC50 ([21]; Homo sapiens, MDA-MB-468, read-out: LC50): 6.25 µM; inhibition at 10 µM ([21]; Homo sapiens, MDA-MB-468, read-out: growth inhibition): 88.3%; GI50 ([21]; Homo sapiens, MDA-MB-468, read-out: mean log10 of the GI50 values (converted)): 0.631 µM; TGI ([21]; MDA-MB-468, five-dose): 2.93 µM; TGI [22]: 3.8 µM; GI50 ([22]; Homo sapiens): 2.1 µM; CC50 [22, 27]: 6.8 µM; GI50 [23, 26]: 2.51 µM; GI50 [23, 24]: 2.87 µM; CC50 [23, 25]: 58.7 µM; TGI ([23]; five-dose): 10.4 µM
